# Measured values published in US4647587A, “Method for treatment of antidiuresis employing serine derivatives” (Sumitomo Pharmaceuticals Company, Limited, priority 1984, dated 1987).
# Columns and labels:
# [1] = Diuretic action (general statement); assay type: in vivo; details: for diuretic action (in words): in vivo
# [2] = clinical tests; U.S. Pat. No. 4,330,558; cited from earlier work
# [3] = clinical tests; U.S. Pat. No. 4,497,826; cited from earlier work
# [4] = Acute toxicity by oral dosage to rat; details: in vivo
# [5] = Acute toxicity by oral dosage to dog; details: in vivo
# [6] = Acute toxicity by oral dosage to mouse; details: in vivo
# [7] = animals; U.S. Pat. No. 3,920,728; cited from earlier work
# [8] = tested on: aromatic L-amino acid decarboxylase; details: cited from earlier work; for NA isomer formed: in vivo
# [9] = U.S. Pat. No. 4,529,603; cited from earlier work
# [10] = Effect of L-threo-DOPS on urinary volume of rats (Experimental Example 1); assay type: in vivo; details: rats, 10, 30, 100 mg/kg p.o., 3 hours, FIG. 1
# Procedure: (§1) The ordinate represents the urinary volume (ml/kg/3 hr) and the abscissa, the amount of dosage of L-threo-DOPS (mg/kg).
# (§2) In FIG. 1 and FIG. 2, the mark * represents p<0.05 (compared with the control group).
# (§3) Three rats starved for 17 hours were arranged to form a group. Ten mg/kg, 30 mg/kg, and 100 mg/kg of L-threo-DOPS were suspended in a 0.5% aqueous solution of methyl cellulose, respectively, and orally administered together with 25 ml/kg of isotonic sodium chloride solution. To the control groups were dosed only 0.5% aqueous solution of methyl cellulose and isotonic sodium chloride solution. The urinary volume was measured through 3 hours after the dosage. In addition, among electrolytes in the urine, amounts of sodium ion (Na^+) and potassium ion (K^+) were measured by a flame photometer, and an amount of chlorine ion (Cl^-) by the method of Zall et al. (Anal. Chem. 28, 1665).
# [11] = Effect of L-threo-DOPS on electrolytes in urine of rats (Experimental Example 1); assay type: in vivo; details: for amount of Cl^- in urine / amount of K^+ in urine / amount of Na^+ in urine: 3 hours, average of 5 groups±S.E.
# Procedure: as §3
# In the table, values are represented in a unit of mEq/kg/3 hr and as the average of 5 groups±S.E.
# [12] = Effect of L-threo-DOPS on urinary volume of mice (Experimental Example 2); assay type: in vivo; details: FIG. 2
# Procedure: as §1, §2
# Ten mice starved for 17 hours were arranged to form a group. Ten mg/kg, 30 mg/kg, and 100 mg/kg of L-threo-DOPS were suspended in a 0.5% aqueous solution of methyl cellulose, respectively, and orally administered together with […] of isotonic sodium chloride solution. To the control groups were dosed only 0.5% aqueous solution of methyl cellulose and isotonic sodium chloride solution.
# [13] = Effect of periphery decarboxylase inhibitor (DCI) on diuretic action of L-threo-DOPS (Experimental Example 3); assay type: in vivo, rats; details: for effect on diuretic action of L-threo-DOPS when used together (in words): p.o. at the same time with L-threo-DOPS
# Procedure: Investigation was made on the effect of L-threo-DOPS on diuretic action when DCI, benserazide or carbidopa was dosed by oral administration at the same time, as in the same manner as Experimental Example 1.
# [14] = Amount of NA in the kidney and heart of rats after the dosage of L-threo-DOPS (Experimental Example 4); assay type: in vivo
# Procedure: To the rats were dosed 30 mg/kg of L-threo-DOPS by oral adminstration, and the amount of NA in the kidney and heart after 1 hour was measured.
# The method for the measurement was nearly in accordance with the method of Suzuki, et al. (Europ. J. Clin. Pharmacol., 23, 463, 1982).
# harmaline induced tremor = details: Japanese Patent Publication 125630/1977; cited from earlier work
# [15] = rats; Araki et al. 1981; cited from earlier work
# [16] = rats; Araki et al. 1978; cited from earlier work
# renal blood vessel = details: in vivo; cited from earlier work
# [17] = rats, 30 mg/kg p.o., after 1 hour, average of 5 rats±S.E.
structure (smiles),measurement,setting,value
N[C@H](C(=O)O)[C@H](O)c1ccc(O)c(O)c1 (relative stereo) [DL-threo-DOPS],diuretic action (in words),[1],significant diuretic action
same,effect on orthostatic hypotension,[2],beneficial effects
same,effect on freezing phenomena of Parkinson's disease,[3],beneficial effects
same,LD50,[4],≥ 10000 mg/kg
same,LD50,[5],≥ 10000 mg/kg
same,LD50,[6],≥ 10000 mg/kg
"N[C@H](C(=O)O)[C@@H](O)c1ccc(O)c(O)c1 (relative stereo) [erythro-DOPS, reference compound]",antihypertensive or antidepressive effect,[7],antihypertensive or antidepressive effect
"N[C@H](C(=O)O)[C@H](O)c1ccc(O)c(O)c1 (relative stereo) [threo-DOPS, threo-3-(3,4-dihydroxyphenyl)-serine]",antihypertensive or antidepressive effect,[7],antihypertensive or antidepressive effect
N[C@H](C(=O)O)C(O)c1ccc(O)c(O)c1 (stereo partly drawn) [L-DOPS],conversion to noradrenaline in vivo,[8]; by aromatic L-amino acid decarboxylase,converted to noradrenaline
N[C@H](C(=O)O)[C@@H](O)c1ccc(O)c(O)c1 [L-erythro-DOPS],effect on psychmotor excitement,[9],suppressive effect
same,NA isomer formed,[8],unnatural type d-NA
N[C@H](C(=O)O)[C@H](O)c1ccc(O)c(O)c1 [L-threo-DOPS],urinary volume (in words),[10],Increase in the urinary volume was recognized in accordance with the amount of dosage
same,amount of Cl^- in urine,[11]; 10 mg/kg p.o.,1.89 ± 0.14 mEq/kg/3 hr
same,amount of K^+ in urine,[11]; 10 mg/kg p.o.,0.32 ± 0.03 mEq/kg/3 hr
same,amount of Na^+ in urine,[11]; 10 mg/kg p.o.,1.58 ± 0.12 mEq/kg/3 hr
same,amount of Cl^- in urine,[11]; 30 mg/kg p.o.,2.97 ± 0.25 mEq/kg/3 hr
same,amount of K^+ in urine,[11]; 30 mg/kg p.o.,0.37 ± 0.05 mEq/kg/3 hr
same,amount of Na^+ in urine,[11]; 30 mg/kg p.o.,2.45 ± 0.32 mEq/kg/3 hr
same,amount of Cl^- in urine,[11]; 100 mg/kg p.o.,3.24 ± 0.07 mEq/kg/3 hr
same,amount of K^+ in urine,[11]; 100 mg/kg p.o.,0.45 ± 0.03 mEq/kg/3 hr
same,amount of Na^+ in urine,[11]; 100 mg/kg p.o.,3.15 ± 0.07 mEq/kg/3 hr
same,amount of Na^+ in urine (in words),[11]; groups dosed 10 mg/kg or more p.o.,significantly increases
same,amount of Cl^- in urine (in words),[11]; only in groups dosed 30 mg/kg or more p.o.,significantly increased
same,amount of K^+ in urine (in words),[11]; only in the group dosed 100 mg/kg p.o.,significant increase
same,amount of K^+ in urine (in words),"[11]; p.o., doses in general",not so much influenced
same,urinary volume (in words),"[12]; mice, 10, 30, 100 mg/kg p.o.",increases the urinary volume in accordance with the amount of dosage
same,"urinary volume, significance (in words)","[12]; mice, group dosed 100 mg/kg p.o.",significant
same,Urinary volume,"[13]; L-threo-DOPS 30 mg/kg p.o. alone, average of 5 groups±S.E.",51.9 ± 3.0 ml/kg/3 hr
same,NA in the heart (in words),[14]; 30 mg/kg p.o.,no influence
same,amount of NA in the kidney (in words),[14]; 30 mg/kg p.o.,markedly increases
same,NA concentration in the kidney compared with those in other organs (in words),"[14]; rat, in vivo",significantly increased
same,amount of NA in the heart,[14]; [17],1.00 ± 0.06 ng/g wet weight
same,amount of NA in the kidney,[14]; [17],1.80 ± 0.35 ng/g wet weight
same,course of diuretic action (in words),[1]; easy manner such as oral administration,uniformly and prolongably
same,diuretic action (in words),[1],significant diuretic action
same,effect on harmaline induced tremor,harmaline induced tremor,inhibitory effect
same,pressor effect,[15],pressor effect
same,positive chronotropic effect,[16],positive chronotropic effect
same,effect on orthostatic hypotension,[2],beneficial effects
same,effect on freezing phenomena of Parkinson's disease,[3],beneficial effects
same,NA isomer formed,[8],natural type l-NA
same,LD50,[4],≥ 10000 mg/kg
same,LD50,[5],≥ 10000 mg/kg
same,LD50,[6],≥ 10000 mg/kg
NC(CO)C(=O)NNCc1ccc(O)c(O)c1O (stereo not drawn) [benserazide],effect on diuretic action of L-threo-DOPS when used together (in words),[13],significantly decreased
C[C@@](Cc1ccc(O)c(O)c1)(NN)C(=O)O [carbidopa],effect on diuretic action of L-threo-DOPS when used together (in words),[13],significantly decreased
NC[C@H](O)c1ccc(O)c(O)c1 [l-NA],action on the renal blood vessel,renal blood vessel,contractive action
same,effect on renal blood flow,renal blood vessel,decrease in the renal blood flow
